Data published in patent US11673881B2, “Isoquinolin-3-yl carboxamides and preparation and use thereof” (BioSplice Therapeutics, Inc., priority 2016, dated 2023).

Experiments:
[1] = tested on: Wnt activity, Sp5-Luc reporter in SW480 colon carcinoma cells; experiment: Screening assay for Wnt activity (Sp5-Luc reporter gene assay); assay type: cell-based, human
Experimental: The screening assay for Wnt activity is described as follows.
Following incubation, 15 μl of BriteLite Plus luminescence reagent (Perkin Elmer) was added to each well of the 384-well assay plates. The plates were placed on an orbital shaker for 2 min and then luminescence was quantified using the Envision (Perkin Elmer) plate reader.

[2] = tested on: Tau phosphorylation at Ser396 (pSer396); experiment: Tau phosphorylation assay (pSer396) in SH-SY5Y cells; assay type: cell-based, human; conditions: overnight (16-18 h) exposure, pSer396 Tau ELISA
Experimental: Two days before treatment, cells were seeded onto 96 well plates at 5×10^4 cells/well.
Wells were visually checked for cell death or change in morphology and supernatants were tested for cytotoxicity by measurement of lactate dehydrogenase release (LDH, CytoToxOne kit, Promega) if necessary.
Cells were lysed with RIPA buffer complemented with phosphatase and protease inhibitors then lysates were spun down at 12,000 g for 10 min to remove any cellular debris. Lysates are then either directly tested for pSer396 by ELISA (Life Technology, Kit KHB7031) or loaded on NuPage Bis-Tris gels for western blot analysis. Colorimetric detection of ELISA signal is performed by Cytation3 plate reader (Biotek) and the chemiluminescence signal for HRP-linked antibodies used in western blotting is detected using a Carestream Image Station. The same pSer396 antibody is used for detection of pTau in both assays.

[3] = tested on: SW480 colon carcinoma cells; experiment: Cell viability assay (CellTiter-Glo); assay type: cell-based, human; conditions: four days incubation
[4] = tested on: LL29 cells (αSMA positive cells); experiment: Fibrosis assay: TGF-β1 treated primary human fibroblasts from IPF patients, αSMA staining; assay type: cell-based; conditions: LL29 cells treated with TGF-β1, 4 days
IL-6 = IL-6 inhibition in LPS-stimulated human peripheral blood mononuclear cells (HTRF); assay type: cell-based; conditions: LPS-stimulated huPBMCs, IL-6 HTRF
Experimental: After 22 hour incubation, a mixture of anti-IL6 XL665 and anti-IL-6 Cryptate diluted in reconstitution buffer (Catalog #62IL6PEC, Cisbio Inc., Bedford, Mass.) was added to each well. […] All samples were processed in duplicate. […] EC50 was determined using software generated by Dotmatics Limited (Windhill Bishops Stortford Herts, UK) using the Levenberg-Marquardt 4 parameter fitting procedure with finite different gradients.

EC50 ([1]; incubated 36 to 48 hours): > 10 µM
EC50 [2]: 762 nM
EC50 [3]: > 10 µM
percent inhibition at 10 μM (given where EC50 >10 μM) (IL-6; 10 μM): 3.9%
EC50 (IL-6): > 10 µM
Compound: Cn1cc(-c2ccc3cnc(NC(=O)C(C)(C)F)cc3c2)nn1 [Compound 312, 2-Fluoro-2-methyl-N-(6-(1-methyl-1H-1,2,3-triazol-4-yl)isoquinolin-3-yl) propanamide]
percent inhibition at 10 μM ([1]; given for EC50 of >10 μM): 23.8%
percent inhibition at 10 μM (given where EC50 >10 μM) ([4]; 10 μM): 36.5%
EC50 ([4]; αSMA staining): > 10 µM
